Like-named read-outs stand apart in the source and are kept apart here.
What was measured:
[1] = tested on: tetracycline efflux pump (strain KB4 or KB5); assay: Inhibition Assay, plate assay (agar with 5 ng/ml of tetracycline); also: key: ±: Possible positive; +: Weak positive; ++: Stronger positive; -: Negative; type: cell-based, E. coli; details: disc on assay plate
Procedure: (§1) To detect tetracyclines, a plate assay is developed that is similar to one described previously (11). Cells are grown in Luria Broth (adjusted with NaOH to pH 7.5) with 25 μg/ml of kanamycin to a cell density of 0.5 absorbance units (600 nm). A 25 ml sample of the culture is harvested by centrifugation and resuspended in 1 ml of broth. The cells are mixed with 25 ml of soft agar (1%, wt/vol) and poured onto 100 ml of LB (pH 7.5)+ kanamycin, within a 22 cm^2 NUNC plate (Corning). Samples are applied by spotting from 2 to 15 μl, or by applying a disc impregnated with a compound, and the plate is incubated for 3-4 hours at 37° C. The plates are overlaid with a solution containing 13.5 mg of 6-bromo-2-naphthyl-β-D-galactopyranoside side and 86.5 mg of fast blue RR (Sigma) dissolved in 2 ml of dimethylsulfoxide, to which 25 ml of soft agar is added. β-Galactosidase is detected by the presence of a purple spot.
Two assays are developed for detecting inhibitors of the tetA gene product (using strain KB5), or the tetK gene product (using strain KB4). In the Inhibition Assay, cells of strain KB4 or KB5 are treated as described in the tetracycline screen above, except that the agar medium contains 5 ng/ml of tetracycline. Alternatively a Liquid Assay is also developed. Cells are first grown in LB (pH 7.5). Then cells are shifted to medium containing 5 ng/ml of tetracycline, and tetracycline-containing samples are added to aliquots. Cells are then incubated and assayed as described for the Tetracycline Assay. […] However, the intracellular concentration is reduced in tetracycline resistant strains due to the action of the efflux pump, so more tetracycline would be required in the medium to accumulate sufficient tetracycline inside the cell to induce. The Inhibition Assay is designed to detect compounds that cause β-galactosidase induction in the presence of sub-inducing levels of tetracycline for a resistant strain.

strain KB3ind = type: cell-based, E. coli; as to Induction Assay response: key: ±: Possible positive; +: Weak positive; ++: Stronger positive; -: Negative
Procedure: as §1

Molecule | Inhibition Assay response [1] | Induction Assay response (strain KB3ind; disc on assay plate) | Induction Assay response (strain KB3ind) | response in the Tetracycline Assay (β-galactosidase induction) (strain KB3ind; strain KB3ind, plate assay (plate or liquid assay))
CCn1cc(C(=O)O)c(=O)c2ccc(C)nc21 [Nalidixic Acid] | - | - |  | 
C[C@@H](O)[C@H]1C(=O)N2C(C(=O)O)=C(SCCN=CN)C[C@H]12 [Imipenem] | ++ |  | ++ | 
CO/N=C(\C(=O)N[C@@H]1C(=O)N2C(C(=O)O)=C(COC(C)=O)CS[C@H]12)c1csc(N)n1 [Cefotaxime] |  | + |  | 
CCn1nc(C(=O)O)c(=O)c2cc3c(cc21)OCO3 [Cinoxacin] | - | ± |  | 
Polymyxin B | - | - |  | 
CC[C@H]1OC(=O)[C@H](C)[C@@H](O[C@H]2C[C@@](C)(OC)[C@@H](O)[C@H](C)O2)[C@H](C)[C@@H](O[C@@H]2O[C@H](C)C[C@H](N(C)C)[C@H]2O)[C@](C)(O)C[C@@H](C)C(=O)[C@H](C)[C@@H](O)[C@]1(C)O [Erythromycin] | - | - |  | 
CC1(C)S[C@@H]2[C@H](NC(=O)C(C(=O)O)c3ccccc3)C(=O)N2[C@H]1C(=O)O (some centres unmarked) [Carbenicillin] | + | + |  | 
CC1(C)S[C@@H]2[C@H](NC(=O)[C@H](NC(=O)N3CCNC3=O)c3ccccc3)C(=O)N2[C@H]1C(=O)O [Azlocillin] | - |  |  | 
COc1cccc(OC)c1C(=O)N[C@@H]1C(=O)N2[C@@H]1SC(C)(C)[C@@H]2C(=O)O [Methicillin] | - | - |  | 
NC(=O)c1cc[n+](CC2=C(C(=O)O)N3C(=O)[C@@H](NC(=O)[C@@H](c4ccccc4)S(=O)(=O)[O-])[C@H]3SC2)cc1 [Cefsulodin] | ± |  |  | 
Colistin | - | - |  | 
CN(C)C1C(=O)C(C(N)=O)=C(O)C2(O)C(=O)C3=C(O)c4c(O)ccc(Cl)c4C(O)C3CC12 (centres unmarked) [6-dimethyl chlortetracycline] |  |  |  | capable of detecting
Cn1nnnc1SCC1=C(C(=O)O)N2C(=O)[C@@H](NC(=O)[C@H](O)c3ccccc3)[C@H]2SC1 [Cefamandole] | + | ± |  | 
CC(C)(O/N=C(\C(=O)N[C@@H]1C(=O)N2C(C(=O)[O-])=C(C[n+]3ccccc3)CS[C@H]12)c1csc(N)n1)C(=O)O [Ceftazidine] | ++ | ++ |  | 
Nc1ccc(S(=O)(=O)Nc2ccc(Cl)nn2)cc1 [Sulfachloropyridazine] | - | - |  | 
Cc1nnc(NS(=O)(=O)c2ccc(N)cc2)s1 [Sulfamethizole] | - | - |  | 
Nc1ccc(S(=O)(=O)Nc2nccs2)cc1 [Sulfathiazole] | - | - |  | 
CCN1CCN(C(=O)N[C@@H](C(=O)N[C@@H]2C(=O)N3[C@@H]2SC(C)(C)[C@@H]3C(=O)O)c2ccccc2)C(=O)C1=O [Piperacillin] | - | ± |  | 
NCC[C@H](O)C(=O)N[C@@H]1C[C@H](N)[C@@H](O[C@H]2O[C@H](CN)[C@@H](O)[C@H](O)[C@H]2O)[C@H](O)[C@H]1O[C@H]1O[C@H](CO)[C@@H](O)[C@H](N)[C@H]1O [Amikacin] | - | - |  | 
CO[C@H]1/C=C/O[C@@]2(C)Oc3c(C)c(O)c4c(O)c(c(/C=N/N5CCN(C)CC5)c(O)c4c3C2=O)NC(=O)/C(C)=C\C=C\[C@H](C)[C@H](O)[C@@H](C)[C@@H](O)[C@@H](C)[C@H](OC(C)=O)[C@@H]1C [Rifampin] | - |  | - | 

Molecule | Inhibition Assay response [1] | Induction Assay response (strain KB3ind; disc on assay plate) | Induction Assay response (strain KB3ind) | response in the Tetracycline Assay (β-galactosidase induction) (strain KB3ind; strain KB3ind, plate assay (plate or liquid assay))
O=C(Cc1cccs1)N[C@@H]1C(=O)N2C(C(=O)[O-])=C(C[n+]3ccccc3)CS[C@H]12 [Cephaleridine] | + |  |  | 
CCn1cc(C(=O)O)c(=O)c2cc(F)c(N3CCNCC3)cc21 [Norfloxacin] | - | - |  | 
Bacitracin | - | - |  | 
CCOc1ccc2ccccc2c1C(=O)N[C@@H]1C(=O)N2[C@@H]1SC(C)(C)[C@@H]2C(=O)O [Nafcillin] | - | - |  | 
Cc1onc(-c2ccccc2Cl)c1C(=O)N[C@@H]1C(=O)N2[C@@H]1SC(C)(C)[C@@H]2C(=O)O [Cloxacillin] | - |  |  | 
CO[C@@H]1[C@@H](OC(N)=O)[C@@H](O)[C@H](Oc2ccc3c(O)c(NC(=O)c4ccc(O)c(CC=C(C)C)c4)c(=O)oc3c2C)OC1(C)C [Novobiocin] | - | - |  | 
Cc1onc(-c2ccccc2)c1C(=O)N[C@@H]1C(=O)N2[C@@H]1SC(C)(C)[C@@H]2C(=O)O [Oxacillin] | - | - |  | 
CC[n+]1c(-c2ccccc2)c2cc(N)ccc2c2ccc(N)cc21 [Ethidium bromide] | - |  |  | 
O=C(N[C@H](CO)[C@H](O)c1ccc([N+](=O)[O-])cc1)C(Cl)Cl [Chloremphenicol] | - | - |  | 
CO[C@@]1(NC(=O)C(C(=O)O)c2ccc(O)cc2)C(=O)N2C(C(=O)O)=C(CSc3nnnn3C)CO[C@@H]21 (some centres unmarked) [Moxalactam] | + | - |  | 
CC(=O)OCC1=C(C(=O)O)N2C(=O)[C@@H](NC(=O)Cc3cccs3)[C@H]2SC1 [Cephalethin] | + | + |  | 
Neomycin |  | - |  | 
CO[C@@]1(NC(=O)Cc2cccs2)C(=O)N2C(C(=O)O)=C(COC(N)=O)CS[C@@H]21 [Cefoxitin] | + |  |  | 
Gentamicin | - | - |  | 
CC1(C)S[C@@H]2[C@H](NC(=O)[C@H](C(=O)O)c3ccsc3)C(=O)N2[C@H]1C(=O)O [Ticarcillin] | + | + |  | 
C[C@@H]1[C@H](O)[C@@H](C)/C=C/C=C/CC/C=C/C=C/C=C/C=C/C(O[C@H]2O[C@H](C)[C@@H](O)[C@H](N)[C@@H]2O)CC2O[C@](O)(CC(O)C(O)CCC(O)CC(O)CC(O)CC(=O)O[C@H]1C)CC(O)C2C(=O)O (some centres unmarked) [Nystatin] | - | ++ |  | 
CN[C@H](CC(C)C)C(=O)N[C@H]1C(=O)N[C@@H](CC(N)=O)C(=O)N[C@H]2C(=O)N[C@H]3C(=O)N[C@H](C(=O)N[C@H](C(=O)O)c4cc(O)cc(O)c4-c4cc3ccc4O)[C@H](O)c3ccc(c(Cl)c3)Oc3cc2cc(c3O[C@@H]2O[C@H](CO)[C@@H](O)[C@H](O)[C@H]2O[C@H]2C[C@](C)(N)[C@H](O)[C@H](C)O2)Oc2ccc(cc2Cl)[C@H]1O [Vancomycin] | - |  | ± | 
[H]/N=C(/N)N[C@H]1[C@H](O)[C@@H](O)[C@H](O[C@@H]2O[C@@H](C)[C@](O)(C=O)[C@H]2O[C@@H]2O[C@@H](CO)[C@H](O)[C@@H](O)[C@@H]2NC)[C@@H](N/C(N)=N\[H])[C@@H]1O [Streptomycin] | - | - |  | 
CC1(C)S[C@@H]2[C@H](NC(=O)[C@H](N)c3ccccc3)C(=O)N2[C@H]1C(=O)O [Ampicillin] |  | + |  | 

From patent US5789188A, “Tetracycline-efflux pump inhibitor screening methods” (priority 1996, dated 1998)
